Data on 12 compounds can be found in patent US10294234B2, “HIV inhibitor compounds” (priority 2017, dated 2019).

SMILES strings stand for the structures.

One assay concerns HIV-1 (IIIB) in MT-4 cells. Nature of the assay: MT-4 HIV assay. The conditions noted are these: Human immunodeficiency virus 1, MT4, 120 h. It is filed as cell-based. The procedure:
Compounds were tested in a high-throughput 384-well assay format for their ability to inhibit the replication of HIV-1 (IIIB) in MT-4 cells. Compounds were serially diluted (1:3) in DMSO on 384-well polypropylene plates and further diluted 200-fold into complete RPMI media (10% FBS, 1% P/S) using the Biotek Micro Flow and Agilent ECHO acoustic dispenser. Each plate contained up to 8 test compounds, with negative (No Drug Control) and 5 uM AZT positive controls. MT-4 cells were pre-infected with 10 uL of either RPMI (mock-infected) or a fresh 1:250 dilution of an HIV-1 (IIIB) concentrated virus stock. Infected and uninfected MT-4 cells were further diluted in complete RPMI media and added to each plate using a Micro Flow dispenser. After 5 days incubation in a humidified and temperature controlled incubator (37° C.), Cell Titer Glo (Promega) was added to the assay plates to quantify the amount of luciferase.
`COC(=O)N[C@H](C(=O)N[C@@H](Cc1ccc(C#Cc2ccc(N3CC4CCC(C3)N4C(=O)N(C)C)nc2)cc1)[C@@H](O)CN(Cc1c(F)cc(-c2cnn(C(F)F)c2)cc1F)NC(=O)[C@@H](NC(=O)OC)C(C)(C)C(F)(F)F)C(C)(C)C(F)(F)F` [Example 17, Methyl ((5S,8S,9S,14S)-11-(4-(1-(difluoromethyl)-1H-pyrazol-4-yl)-2,6-difluorobenzyl)-8-(4-((6-(8-(dimethylcarbamoyl)-3,8-diazabicyclo[3.2.1]octan-3-yl)pyridin-3-yl)ethynyl)benzyl)-16,16,16-trifluoro-9-hydroxy-15,15-dimethyl-3,6,13-trioxo-5-(1,1,1-trifluoro-2-methylpropan-2-yl)-2-oxa-4,7,11,12-tetraazahexadecan-14-yl)carbamate]: the EC50 was determined as 7.24 nM.

For the compound `COC(=O)N[C@H](C(=O)N[C@@H](Cc1ccc(C#Cc2cnc(N3C[C@H]4C[C@@H]3CN4C3COC3)nc2)cc1)[C@@H](O)CN(Cc1c(F)cc(-c2ncccn2)cc1F)NC(=O)[C@@H](NC(=O)OC)C(C)(C)C(F)(F)F)C(C)(C)C(F)(F)F` [Example 24, Methyl ((5S,8S,9S,14S)-11-(2,6-difluoro-4-(pyrimidin-2-yl)benzyl)-16,16,16-trifluoro-9-hydroxy-15,15-dimethyl-8-(4-((2-((1R,4R)-5-(oxetan-3-yl)-2,5-diazabicyclo[2.2.1]heptan-2-yl)pyrimidin-5-yl)ethynyl)benzyl)-3,6,13-trioxo-5-(1,1,1-trifluoro-2-methylpropan-2-yl)-2-oxa-4,7,11,12-tetraazahexadecan-14-yl)carbamate], a half-maximal effect (EC50) was put at 3.82 nM.

Staying with this assay, now noted: Human immunodeficiency virus 1, MT4, 120 h; HIV-1 (IIIB), MT-4 cells, 5 days, Cell Titer Glo; read-out: EC50.
As for `COC(=O)N[C@H](C(=O)NN(Cc1c(F)cc(-c2cn(C(F)F)cn2)cc1F)C[C@H](O)[C@H](Cc1ccc(C#Cc2cnc(N3CC4CCC(C3)N4C3COC3)nc2)cc1)NC(=O)[C@@H](NC(=O)OC)C(C)(C)C(F)(F)F)C(C)(C)C` [Example 2, Methyl ((5S,8S,9S,14S)-11-(4-(1-(difluoromethyl)-1H-imidazol-4-yl)-2,6-difluorobenzyl)-9-hydroxy-15,15-dimethyl-8-(4-((2-(8-(oxetan-3-yl)-3,8-diazabicyclo[3.2.1]octan-3-yl)pyrimidin-5-yl)ethynyl)benzyl)-3,6,13-trioxo-5-(1,1,1-trifluoro-2-methylpropan-2-yl)-2-oxa-4,7,11,12-tetraazahexadecan-14-yl)carbamate], the EC50 came to 2.64 nM.

Regarding `COC(=O)N[C@H](C(=O)N[C@@H](Cc1ccc(C#Cc2ccc(N3CC4CCC(C3)N4C3COC3)nc2)cc1)[C@@H](O)CN(Cc1ccc(-c2ccn(CC(F)F)n2)cc1)NC(=O)[C@@H](NC(=O)OC)C(C)(C)C(F)(F)F)C(C)(C)C(F)(F)F` [Example 3, Methyl ((5S,10S,11S,14S)-8-(4-(1-(2,2-difluoroethyl)-1H-pyrazol-3-yl)benzyl)-16,16,16-trifluoro-10-hydroxy-15,15-dimethyl-11-(4-((6-(8-(oxetan-3-yl)-3,8-diazabicyclo[3.2.1]octan-3-yl)pyridin-3-yl)ethynyl)benzyl)-3,6,13-trioxo-5-(1,1,1-trifluoro-2-methylpropan-2-yl)-2-oxa-4,7,8,12-tetraazahexadecan-14-yl)carbamate], the EC50 turned out to be 6.95 nM.

For `COC(=O)N[C@H](C(=O)N[C@@H](Cc1ccc(C#Cc2ccc(N3CC4CCC(C3)N4C(=O)C3(C)COC3)nc2)cc1)[C@@H](O)CN(Cc1c(F)cc(-c2ccn(C)n2)cc1F)NC(=O)[C@@H](NC(=O)OC)C(C)(C)C)C(C)(C)C` [Example 4], the EC50 was determined as 2.82 nM.

Consider `COC(=O)N[C@H](C(=O)NN(Cc1c(F)cc(-c2ccn(C3CC3)n2)cc1F)C[C@H](O)[C@H](Cc1ccc(C#Cc2ccc(N3CC4CCC(C3)N4C3COC3)nc2)cc1)NC(=O)[C@@H](NC(=O)OC)C(C)(C)C(F)(F)F)C(C)(C)C` [Example 5, methyl ((5S,8S,9S,14S)-11-(4-(1-cyclopropyl-1H-pyrazol-3-yl)-2,6-difluorobenzyl)-9-hydroxy-15,15-dimethyl-8-(4-((6-(8-(oxetan-3-yl)-3,8-diazabicyclo[3.2.1]octan-3-yl)pyridin-3-yl)ethynyl)benzyl)-3,6,13-trioxo-5-(1,1,1-trifluoro-2-methylpropan-2-yl)-2-oxa-4,7,11,12-tetraazahexadecan-14-yl)carbamate], for which the 50% effective concentration (EC50) amounted to 4.37 nM.

As for `COC(=O)N[C@H](C(=O)NN(Cc1c(F)cc(-c2ccn(CC(F)F)n2)cc1F)C[C@H](O)[C@H](Cc1ccc(C#Cc2ccc(N3C[C@H]4C[C@@H]3CN4C3COC3)nc2)cc1)NC(=O)[C@@H](NC(=O)OC)C(C)(C)C(F)(F)F)C(C)(C)C` [Example 8, methyl ((5S,8S,9S,14S)-11-(4-(1-(2,2-difluoroethyl)-1H-pyrazol-3-yl)-2,6-difluorobenzyl)-9-hydroxy-15,15-dimethyl-8-(4-((6-((1R,4R)-5-(oxetan-3-yl)-2,5-diazabicyclo[2.2.1]heptan-2-yl)pyridin-3-yl)ethynyl)benzyl)-3,6,13-trioxo-5-(1,1,1-trifluoro-2-methylpropan-2-yl)-2-oxa-4,7,11,12-tetraazahexadecan-14-yl)carbamate], the EC50 was found to be 2.46 nM.

For the compound `COC(=O)N[C@H](C(=O)N[C@@H](Cc1ccc(C#Cc2ccc(N3CCN4CCOC[C@H]4C3)nc2)cc1)[C@@H](O)CN(Cc1c(F)cc(-c2ccn(CC(F)F)n2)cc1F)NC(=O)[C@@H](NC(=O)OC)C(C)(C)C(F)(F)F)C(C)(C)C(F)(F)F` [Example 10, Methyl ((5S,8S,9S,14S)-11-(4-(1-(2,2-difluoroethyl)-1H-pyrazol-3-yl)-2,6-difluorobenzyl)-16,16,16-trifluoro-8-(4-((6-((R)-hexahydropyrazino[2,1-c][1,4]oxazin-8(1H)-yl)pyridin-3-yl)ethynyl)benzyl)-9-hydroxy-15,15-dimethyl-3,6,13-trioxo-5-(1,1,1-trifluoro-2-methylpropan-2-yl)-2-oxa-4,7,11,12-tetraazahexadecan-14-yl)carbamate], the EC50 turned out to be 3.46 nM.

Consider `COC(=O)N[C@H](C(=O)NN(Cc1c(F)cc(-c2ccn(C(F)F)n2)cc1F)C[C@H](O)[C@H](Cc1ccc(C#Cc2ccc(N3CC4CC(C3)N4C3COC3)nc2)cc1)NC(=O)[C@@H](NC(=O)OC)C(C)(C)C(F)(F)F)C(C)(C)C` [Example 12, Methyl ((5S,8S,9S,14S)-11-(4-(1-(difluoromethyl)-1H-pyrazol-3-yl)-2,6-difluorobenzyl)-9-hydroxy-15,15-dimethyl-8-(4-((6-(6-(oxetan-3-yl)-3,6-diazabicyclo[3.1.1]heptan-3-yl)pyridin-3-yl)ethynyl)benzyl)-3,6,13-trioxo-5-(1,1,1-trifluoro-2-methylpropan-2-yl)-2-oxa-4,7,11,12-tetraazahexadecan-14-yl)carbamate], for which the EC50 came out at 3.11 nM.

Turning to `COC(=O)N[C@H](C(=O)NN(Cc1c(F)cc(-c2ccn(C(F)F)n2)cc1F)C[C@H](O)[C@H](Cc1ccc(C#Cc2ccc(N3CCN4CCOC[C@H]4C3)nc2)cc1)NC(=O)[C@@H](NC(=O)OC)C(C)(C)C(F)(F)F)C(C)(C)C` [Example 13, Methyl ((5S,8S,9S,14S)-11-(4-(1-(difluoromethyl)-1H-pyrazol-3-yl)-2,6-difluorobenzyl)-8-(4-((6-((R)-hexahydropyrazino[2,1-c][1,4]oxazin-8(1H)-yl)pyridin-3-yl)ethynyl)benzyl)-9-hydroxy-15,15-dimethyl-3,6,13-trioxo-5-(1,1,1-trifluoro-2-methylpropan-2-yl)-2-oxa-4,7,11,12-tetraazahexadecan-14-yl)carbamate], the 50% effective concentration (EC50) was 6.3 nM.

For the compound `COC(=O)N[C@H](C(=O)N[C@@H](Cc1ccc(C#Cc2ccc(N3CC4CCC(C3)N4C3COC3)nc2)cc1)[C@@H](O)CN(Cc1c(F)cc(-c2ccn([C@@H]3CCOC3)n2)cc1F)NC(=O)[C@@H](NC(=O)OC)C(C)(C)C(F)(F)F)C(C)(C)C(F)(F)F` [Example 15, Methyl ((5S,8S,9S,14S)-11-(2,6-difluoro-4-(1-((R)-tetrahydrofuran-3-yl)-1H-pyrazol-3-yl)benzyl)-16,16,16-trifluoro-9-hydroxy-15,15-dimethyl-8-(4-((6-(8-(oxetan-3-yl)-3,8-diazabicyclo[3.2.1]octan-3-yl)pyridin-3-yl)ethynyl)benzyl)-3,6,13-trioxo-5-(1,1,1-trifluoro-2-methylpropan-2-yl)-2-oxa-4,7,11,12-tetraazahexadecan-14-yl)carbamate], the concentration for a half-maximal effect (EC50) turned out to be 4.22 nM.

As to `COC(=O)N[C@H](C(=O)N[C@@H](Cc1ccc(C#Cc2ccc(N3CC4CCC(C3)N4C3COC3)nc2)cc1)[C@@H](O)CN(Cc1c(F)cc(-c2ccn(C)n2)cc1F)NC(=O)[C@@H](NC(=O)OC)C(C)(C)C)C(C)(C)C` [Example 22, Methyl ((5S,8S,9S,14S)-5-(tert-butyl)-1-(2,6-difluoro-4-(1-methyl-1H-pyrazol-3-yl)benzyl)-9-hydroxy-15,15-dimethyl-8-(4-((6-(8-(oxetan-3-yl)-3,8-diazabicyclo[3.2.1]octan-3-yl)pyridin-3-yl)ethynyl)benzyl)-3,6,13-trioxo-2-oxa-4,7,11,12-tetraazahexadecan-14-yl)carbamate], the EC50 was determined as 3.24 nM.

Broadly, the EC50 is the concentration that produces a half-maximal response.
